Measured values from patent US20150004134A1, “TREATMENT OF CANCER WITH HETEROCYCLIC INHIBITORS OF GLUTAMINASE” (Calithera Biosciences, Inc., priority 2012, published 2015).
Where two headings read alike, the source gives them in different places.

Columns and labels:
[1] = target: T1, recombinant form of Glutaminase 1 (GAC) (Homo sapiens, UniProt O94925); assay: Recombinant Enzyme Assay (no preincubation); type: biochemical; conditions: read-out: GAC Delta N2 IC50 no preinc;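 also: GDH-coupled GAC activity read as absorbance at 340 nm in kinetic mode over 15 min at 20 °C, slopes compared with a DMSO-only control, lower slope means inhibition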
T1 sequence (O94925 137-598 isoform O94925-3 limits assumed): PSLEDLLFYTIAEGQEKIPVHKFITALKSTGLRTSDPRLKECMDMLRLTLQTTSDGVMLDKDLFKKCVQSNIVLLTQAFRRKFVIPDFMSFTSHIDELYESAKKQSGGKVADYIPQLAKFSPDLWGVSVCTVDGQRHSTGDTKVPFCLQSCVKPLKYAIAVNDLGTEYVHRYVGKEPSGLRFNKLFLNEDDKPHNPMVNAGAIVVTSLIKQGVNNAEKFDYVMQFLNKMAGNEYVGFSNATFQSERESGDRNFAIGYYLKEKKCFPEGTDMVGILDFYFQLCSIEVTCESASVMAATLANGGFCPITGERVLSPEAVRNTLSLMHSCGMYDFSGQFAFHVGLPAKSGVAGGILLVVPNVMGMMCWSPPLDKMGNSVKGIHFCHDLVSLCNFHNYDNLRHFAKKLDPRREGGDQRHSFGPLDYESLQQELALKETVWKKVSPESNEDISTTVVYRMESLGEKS
Method: Compounds were assessed for their ability to inhibit the enzymatic activity of a recombinant form of Glutaminase 1 (GAC) using a biochemical assay that couples the production of glutamate (liberated by GAC) to glutamate dehydrogenase (GDH) and measuring the change in absorbance for the reduction of NAD^+ to NADH. […] Enzymatic reaction was started with the addition of 50 μL of enzyme solution (50 mM Tris-HCl pH 8.0, 0.2 mM EDTA, 150 mM K2HPO4, 0.1 mg/ml BSA, 1 mM DTT, 10 ppm antifoam, 4 units/ml GDH, 4 mM adenosine diphosphate, and 4 nM GAC) and read in a Molecular Devices M5 plate reader at 20° C. The plate reader was configured to read absorbance (λ=340 nm) in kinetic mode for 15 minutes. Data was recorded as milli-absorbance units per minute and slopes were compared to a control compound and a DMSO-only control on the same plate. Compounds with slopes less than the DMSO control were considered inhibitors and plate variability was assessed using the control compound.

P493-6 (myc "on") cells = assay: Cell Proliferation Assay; type: cell-based; conditions: P493-6, 72 h
Outline: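 Read-out: either Cell Titer Glo or Guava Viacount flow analysis after 72 h compound treatment of myc-on P493-6 cells (10,000/well, RPMI with 10% FBS) at 37 °C. DMSO held at 0.5% final.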

[2] = target: T1, recombinant form of Glutaminase 1 (GAC); assay: Recombinant Enzyme Assay - Time Dependence (60 min preincubation); type: biochemical; conditions: read-out: GAC Delta N2 IC50 60 min preinc
Outline: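 Enzyme and compound preincubated 60 min at 20° C; reaction started with substrate buffer (50 mM Tris-HCl pH 8.0, 150 mM K2HPO4, 1 mM DTT, 20 mM L-glutamine, 2 mM NAD^+). NADH formation followed at 340 nm in kinetic mode for 15 min at 20° C; slopes (mAU/min) compared with DMSO and control-compound wells.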

[3] = read-out: Cell prolif P493 72 h IC50, P493 cells, 72 h
[4] = read-out: Cell prolif P493 72 h IC50, P493-6 cells, 72 h

SMILES | IC50 [1] | IC50 (P493-6 (myc "on") cells; [3]) | IC50 [2] | IC50 (P493-6 (myc "on") cells; [4])
O=C(Nc1nnc(CCSCCc2nnc(NC(=O)C(CO)c3ccccc3)s2)s1)C(CO)c1ccccc1 (stereo not shown) [Compound 24] | 510 nM | 2300 nM | – | –
O=C(CCCCN1CCOCC1)OCN(C(=O)Cc1ccccc1)c1nnc(CCSCCc2nnc(N(COC(=O)OCCCN3CCOCC3)C(=O)Cc3ccccc3)s2)s1 [Compound 28] | > 50000 nM | 1000 nM | – | –
O=C(Cc1ccccc1)Nc1nnc(CCSCCc2nnc(NC(=O)C(CO)c3ccccc3)s2)s1 (stereo not shown) [Compound 29] | 560 nM | 4100 nM | – | –
O=C(Nc1nnc(CCCCc2nnc(NC(=O)C(CO)c3ccccc3)s2)s1)C(CO)c1ccccc1 (stereo not shown) [Compound 36, N,N′-[5,5′-(butane-1,4-diyl)-bis(1,3,4-thiadiazole-5,2-diyl)]-bis(3-hydroxy-2-phenylpropanamide)] | 220 nM | 160 nM | 40 nM | –
O=C(Nc1nnc(CCSCCc2nnc(NC(=O)[C@H]3C[C@@H]3c3ccccc3)s2)s1)C1C[C@@H]1c1ccccc1 (stereo partly shown) [Compound 91] | > 20000 nM | – | – | –
Nc1cccc(CC(=O)Nc2nnc(CCSCCc3nnc(NC(=O)Cc4cccc(N)c4)s3)s2)c1 [Compound 99] | 2700 nM | 1000 nM | – | –
O=C(Nc1nnc(CCSCCc2nnc(NC(=O)C3COc4ccccc43)s2)s1)C1COc2ccccc21 (stereo not shown) [Compound 133] | 510 nM | 150 nM | – | –
CC[C@@](O)(C(=O)Nc1nnc(CCCCc2nnc(NC(=O)[C@](O)(CC)c3ccccc3)s2)s1)c1ccccc1 [Compound 144] | > 20000 nM | – | – | –
COc1cccc(CC(=O)Nc2nnc(CCCCc3nnc(NC(=O)Cc4cccc(OC)c4)s3)s2)c1 [Compound 159] | 110 nM | 50 nM | – | –
COc1ccc(CC(=O)Nc2nnc(CCCCc3nnc(NC(=O)Cc4ccc(OC)cc4)s3)s2)cc1 [Compound 163] | 130 nM | > 50000 nM | – | –
COc1cc(CC(=O)Nc2nnc(CCCCc3nnc(NC(=O)Cc4cc(OC)cc(OC)c4)s3)s2)cc(OC)c1 [Compound 205] | 380 nM | 4100 nM | – | –
O=C(Cc1cccc(OCCO)c1)Nc1nnc(CCCCc2nnc(NC(=O)Cc3cccc(OCCO)c3)s2)s1 [Compound 235] | 110 nM | 210 nM | – | –
CC(=O)O[C@@H](C(=O)Nc1nnc(CCSCc2nnc(NC(=O)[C@H](OC(C)=O)c3ccccc3)s2)s1)c1ccccc1 [Compound 238] | 13000 nM | – | – | –
O=C(Nc1nnc(CCSCc2nnc(NC(=O)C(CO)c3ccccc3)s2)s1)C(CO)c1ccccc1 (stereo not shown) [Compound 239] | 300 nM | 300 nM | – | –
O=C(Cc1cccc(OCCN2CCOCC2)c1)Nc1nnc(CCCCc2nnc(NC(=O)Cc3cccc(OCCN4CCOCC4)c3)s2)s1 [Compound 241] | 380 nM | 870 nM | – | –
O=C(Nc1nnc(CCSCc2nnc(NC(=O)[C@@H](O)c3ccccc3)s2)s1)[C@@H](O)c1ccccc1 [Compound 242] | 360 nM | 220 nM | – | –
CCOC(=O)Nc1nnc(CCCCc2nnc(NC(=O)Cc3ccccc3)s2)s1 [Compound 244] | 840 nM | 1700 nM | – | –
COc1cccc(CC(=O)Nc2nnc(CCSCc3nnc(NC(=O)Cc4cccc(OC)c4)s3)s2)c1 [Compound 250] | 120 nM | 140 nM | – | –
O=C(Cc1cccc(CN2CCNCC2)c1)Nc1nnc(CCSCc2nnc(NC(=O)Cc3cccc(CN4CCNCC4)c3)s2)s1 [Compound 276] | 1500 nM | 56000 nM | – | –
C=C(C(=O)Nc1nnc(CCCCc2nnc(NC(=O)C(OCC(=O)CCN3CCOCC3)c3ccccc3)s2)s1)c1ccccc1 (stereo not shown) [Compound 281] | 740 nM | 660 nM | – | –
O=C(Cc1ccccn1)Nc1nnc(CCCCc2nnc(NC(=O)Cc3ccccn3)s2)s1 [Compound 307] | 6400 nM | 9300 nM | – | –
O=C(Cc1ccccc1)Nc1nnc(CCCCc2nnc(NC(=O)Cc3ccccn3)s2)s1 [Compound 310] | 83 nM | 120 nM | – | –
O=C(O)Cc1cccc(CC(=O)Nc2nnc(CCCCc3nnc(NC(=O)Cc4cccc(CC(=O)O)c4)s3)s2)c1 [Compound 313] | 270 nM | 94000 nM | – | –
O=C(Cc1ccccc1)Nc1ccc(CCCCc2nnc(NC(=O)C(CO)c3ccccc3)s2)nn1 (stereo not shown) [Compound 314] | 140 nM | 48 nM | – | –
CC(C)(C)OC(=O)NCc1cccc(CC(=O)Nc2nnc(CCCCc3nnc(NC(=O)Cc4cccc(CNC(=O)OC(C)(C)C)c4)s3)s2)c1 [Compound 324] | 4600 nM | 100 nM | – | –
NCc1cccc(CC(=O)Nc2nnc(CCCCc3nnc(NC(=O)Cc4cccc(CN)c4)s3)s2)c1 [Compound 325] | 660 nM | 30 nM | 170 nM | –

SMILES | IC50 [1] | IC50 (P493-6 (myc "on") cells; [3]) | IC50 [2] | IC50 (P493-6 (myc "on") cells; [4])
Nc1cccc(CC(=O)Nc2nnc(CCCCc3nnc(NC(=O)Cc4cccc(N)c4)s3)s2)c1 [Compound 329] | 170 nM | 450 nM | – | –
O=C(Cc1ccccc1)Nc1ccc(CCCCc2nnc(NC(=O)Cc3ccc(O)c(Cl)c3)s2)nn1 [Compound 336] | 68 nM | 52 nM | – | –
O=C(Cc1ccccc1)Nc1ccc(CCCCc2nnc(NC(=O)Cc3cccc(O)c3)s2)nn1 [Compound 337] | 73 nM | 21 nM | – | –
O=C(Cc1ccccc1)Nc1ccc(CCCCc2nnc(NC(=O)Cc3cccc(OCc4ccccc4)c3)s2)nn1 [Compound 338] | 150 nM | 43 nM | – | –
O=C(Cc1ccccc1)Nc1ccc(CCCCc2nnc(NC(=O)[C@H](O)c3cccc(Cl)c3)s2)nn1 [Compound 340] | 96 nM | 38 nM | – | –
O=C(Cc1ccccc1)Nc1ccc(CCCCc2nnc(NC(=O)C(O)c3cc(F)cc(F)c3)s2)nn1 (stereo not shown) [Compound 351] | 110 nM | 49 nM | – | –
COc1cccc(CC(=O)Nc2nnc(CCCCc3ccc(NC(=O)Cc4ccccc4)nn3)s2)c1 [Compound 353] | 49 nM | 21 nM | – | –
O=C(Cc1ccccc1)Nc1ccc(CCCCc2nnc(NC(=O)Cc3cccnc3)s2)nn1 [Compound 355] | 100 nM | 39 nM | – | –
COc1cccc(CC(=O)Nc2nnc(CCSCCc3nnc(NC(=O)Cc4ccccn4)s3)s2)c1 [Compound 360] | 280 nM | 670 nM | – | –
O=C(Cc1ccccc1)Nc1nnc(CCCCc2ccc(NC(=O)C(O)c3ccccc3)nn2)s1 (stereo not shown) [Compound 364] | 150 nM | 260 nM | 30 nM | –
O=C(Cc1ccccc1)Nc1nnc(CCCCc2ccc(NC(=O)C(O)c3cccc(Cl)c3)nn2)s1 (stereo not shown) [Compound 365] | 92 nM | 89 nM | 9 nM | –
COc1cccc(CC(=O)Nc2ccc(CCCCc3nnc(NC(=O)Cc4ccccc4)s3)nn2)c1 [Compound 366] | 74 nM | 24 nM | – | –
O=C(Cc1ccccc1)Nc1ccc(CCCCc2nnc(NC(=O)Cc3cccc(-n4ccnc4)c3)s2)nn1 [Compound 379] | 97 nM | 38 nM | – | –
Cc1nccn1Cc1cccc(CC(=O)Nc2nnc(CCCCc3ccc(NC(=O)Cc4ccccc4)nn3)s2)c1 [Compound 380] | 120 nM | 19 nM | – | –
O=C(Cc1ccccc1)Nc1ccc(CCCCc2nnc(NC(=O)Cc3cccc(OCCN4CCOCC4)c3)s2)nn1 [Compound 381] | 160 nM | 18 nM | – | –
O=C(Cc1ccccn1)Nc1ccc(CCCCc2nnc(NC(=O)Cc3ccccc3)s2)nn1 [Compound 383] | 86 nM | 22 nM | – | –
Nc1ccc(CCCCc2nnc(NC(=O)Cc3cccc(OCc4ccccc4)c3)s2)nn1 [Compound 385] | 260 nM | 720 nM | – | –
O=C(Cc1ccccc1)Nc1ccc(CCCCc2nnc(NC(=O)OCc3ccccc3)s2)nn1 [Compound 386] | 85 nM | 150 nM | – | –
O=C(Cc1cccc2cnccc12)Nc1nnc(CCCCc2nnc(NC(=O)Cc3cccc4cnccc34)s2)s1 [Compound 639] | 170 nM | – | – | 23000 nM
O=C(Cc1cccc2[nH]ncc12)Nc1nnc(CCCCc2nnc(NC(=O)Cc3cccc4[nH]ncc34)s2)s1 [Compound 640] | 120 nM | – | – | 70 nM
O=C(Cc1cccc2ncccc12)Nc1nnc(CCCCc2nnc(NC(=O)Cc3cccc4ncccc34)s2)s1 [Compound 641] | 140 nM | – | – | 500 nM
CC(N)c1cc(CC(=O)Nc2nnc(CCCCc3ccc(NC(=O)Cc4ccccc4)nn3)s2)ccc1F (stereo not shown) [Compound 655] | – | – | 19 nM | 350 nM
CC(N)c1cc(CC(=O)Nc2ccc(CCCCc3nnc(NC(=O)Cc4ccccc4)s3)nn2)ccc1F (stereo not shown) [Compound 656] | – | – | 18 nM | 400 nM
O=C(Cc1ccccc1)Nc1ccc(CCCCc2nnc(NC(=O)Cc3cccc(OCC(F)(F)F)c3)s2)nn1 [Compound 665] | – | – | 5 nM | 100 nM
O=C(Cc1cccc(OCC(F)(F)F)c1)Nc1ccc(CCCCc2nnc(NC(=O)Cc3ccccc3)s2)nn1 [Compound 667] | – | – | 4 nM | 110 nM
